For one assay, the system named is T1, Phchr2|2915237.
T1 construct: gene phchr2_2915237; synthetic gene from JGI model, secreted by Aspergillus oryzae, C-terminal 6xHis tag kept, Ni-purified
Kind of assay: discontinuous pNP release at […] nm. It counts as biochemical, Phanerodontia chrysosporium. The note with it: phosphate citrate buffer; pH and temperature of the kinetics not restated (optimum pH 5, 60 °C).

The test system of another assay is T2, Phchr2|126075.
T2 construct: gene phchr2_126075; filtered culture supernatant assayed
As to the kind of experiment: continuous pNP release at […] nm, filtered K. lactis culture supernatant. The note with it: 50 mM TRIS pH 8, 20 mM KCl, 40 °C. It counts as biochemical, Phanerodontia chrysosporium.

Another assay concerns the target T3, WP_074995790 (Streptomyces misionensis, UniProt A0A1H5HEE9).
T3 construct: gene SAMN04490357_7452; synthetic gene without secretion signal, pET20b, C-terminal His-tag, E. coli Rosetta DE3, Ni-IDA purified
T3 sequence (A0A1H5HEE9 63-752): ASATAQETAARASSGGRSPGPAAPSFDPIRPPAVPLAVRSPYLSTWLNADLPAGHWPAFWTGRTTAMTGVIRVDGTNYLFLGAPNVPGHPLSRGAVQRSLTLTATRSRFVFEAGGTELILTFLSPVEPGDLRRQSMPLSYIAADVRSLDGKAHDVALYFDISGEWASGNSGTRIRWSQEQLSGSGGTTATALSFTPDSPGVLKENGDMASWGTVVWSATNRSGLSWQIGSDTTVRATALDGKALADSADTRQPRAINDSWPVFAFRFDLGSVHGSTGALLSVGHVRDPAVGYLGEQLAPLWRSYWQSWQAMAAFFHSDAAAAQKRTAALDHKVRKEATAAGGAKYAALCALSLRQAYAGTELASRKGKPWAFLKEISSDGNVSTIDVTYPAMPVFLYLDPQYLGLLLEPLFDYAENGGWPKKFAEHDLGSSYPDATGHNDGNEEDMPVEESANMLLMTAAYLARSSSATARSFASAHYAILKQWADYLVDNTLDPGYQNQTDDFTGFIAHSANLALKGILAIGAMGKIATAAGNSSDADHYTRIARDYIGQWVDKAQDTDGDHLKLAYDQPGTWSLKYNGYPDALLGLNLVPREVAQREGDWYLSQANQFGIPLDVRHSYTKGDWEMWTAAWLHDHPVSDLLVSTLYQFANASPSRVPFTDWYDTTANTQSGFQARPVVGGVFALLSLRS
Kind of assay: pNP release at […] nm. The note with it: 200 µM substrate, phosphate citrate buffer; only specific activity reported. Format: biochemical.

For orientation: Km means the concentration of substrate that gives half-maximal velocity. Turning to `O=[N+]([O-])c1ccc(O[C@@H]2O[C@H](CO)[C@@H](O)[C@H](O)[C@H]2O)cc1` [pNP-Glc], in the assay on Phchr2|2915237, the Km turned out to be 1820 µM. `O=[N+]([O-])c1ccc(O[C@@H]2OC[C@@H](O)[C@H](O)[C@H]2O)cc1` [pNP-Xyl]: the Km in the assay with Phchr2|2915237 turned out to be 6980 µM. In the case of `CC(=O)Oc1ccc([N+](=O)[O-])cc1` [pNP-acetate], in the assay with Phchr2|126075, the Km worked out at 670 µM. On to `O=[N+]([O-])c1ccc(O[C@@H]2O[C@H](CO)[C@H](O)[C@H](O)[C@H]2O)cc1` [pNP-Gal], for which the “pNP release at 410 nm” value at WP_074995790 is given as “we were able to detect a weak β-galactosidase activity”.

The values are drawn from PMC9668830, “Identification of fungal lignocellulose-degrading biocatalysts secreted by Phanerochaete chrysosporium via activity-based protein profiling” (Communications Biology, 2022).
